Test results reported in patent EP1247803A2, “Indolinone compounds suitable for modulation of protein kinases” (Sugen, Inc., priority 1996, dated 1998).

Legend:
EGFR = target: T1, EGFR (Homo sapiens, UniProt P00533); experiment: EGFR ELISA assay (in vitro kinase activity, EGFR captured from A431 cell lysate); format: biochemical; design: concentration or dose not given beside the values
T1 construct: Add 7 ug A431 cell lysate per well (EGFR source); endogenous in cells; host or cells: A431
Excerpt: To provide a consistent method for measuring the in vitro kinase activity of the EGFR in an Enzyme-linked immunosorbent assay (Elisa).
Scope. The following protocol describes the procedures used to analyze protein tyrosine kinase activity on the EGFR in an Elisa. The procedure also describes the protocol for the initial screening of drugs for inhibition or activation of protein tyrosine kinase activity.
Reagents and Supplies. • 1. […] 05-101 monoclonal anti-EGFR antibody (commercially available from UB1) -80° C, 1 ml aliquots • 3. […] TBST Buffer Formulation: 50 mM Tris pH 7.2 150 mM NaCl 0.1% Triton X-100 • 5. Blocking Buffer Formulation: 5% Carnation Instant Milk in PBS • 6. A431 cell lysate A431 cells are available from a variety of commercial sources and may be used lysed using conventional methods known to those skilled in the art or as described for lysis of the 3T3 cells in the EGF cellular assay described herein. -80° C, 1 ml aliquots • 7. TBS Buffer Formulation: 50 mM Tris pH 7.2 150 mM NaCl • 8. […] NUNC 96-well V bottom polypropylene plates Applied Scientific Catalog # AS-72092 • 11. EDTA Formulation: 200 mM EDTA pH 8.0 • 12. […] Goat anti-rabbit IgG peroxidase conjugate Biosource Catalog # ALI0404 • 14. ABTS Solution Formulation: 100 mM Citric Acid (anhydrous) 250 mM Na2HPO4 pH 4.0 0.5 mg/ml ABTS (2,2'-azino-bis(3-ethylbenzthiazoline-6-sulfonic acid) (Sigma Catalog # A-1888) Keep solution in dark at 4 C until ready to use • 15. Hydrogen peroxide 30% solution Fisher Catalog # H325 Store in the dark at 4 C until ready to use • 16. ABTS/H2O2 Formulation: 15 mls ABTS solution 2 ul H2O2 Prepare 5 minutes before use and room temperature • 17. 0.2 M HCL stock in H2O Procedure. • 1. Coat Corning 96-well elisa plates with 0.5 ug per well 05-101 antibody. Bring final volume to 100 ul per well with PBS. Coat plates overnight at 4° C. • 2. Remove unbound 05-101 from wells by inverting plate to remove liquid. Wash 1x with distilled H2O by filling wells Pat the plate on a paper towel to remove excess liquid. • 3. Block plates with 5% milk in PBS. 150 ul per well. Incubate plate 30 minutes while shaking on a microtiter plate shaker. • 4. Wash plate 3x with dionized water, then once with TBST • 5. Add 7 ug A431 cell lysate per well (EGFR source). Add PBS to final volume of 100 ul per well Incubate 30 minutes while shaking. • 6. Wash as described in step 4. • 7. At this point, drugs or extracts are added to the wells. Dilute drugs/extracts 1:100 (unless specified otherwise) in TBS + 10% DMSO in 96-well polypropylene plates. Add 120 ul TBS to ELISA plate containing captured EGFR. Add 13.5 ul diluted drugs/extracts to ELISA plate. […] Incubate plate 30 minutes while shaking. • 8. […] (150 ul final volume in well with 3 uM ATP/5 mM MnCl2 final concentration in well.) Incubate 5 minutes while shaking vigorously. *NOTE: It is critical that ATP/MnCl2 phosphorylates the receptor for 5 minutes only. It is best to add the ATP/MnCl2 with an 12 channel pipettor 1 row at a time leaving 20 seconds between each row so that the reaction may be stopped with EDTA exactly 5 minutes later (this depends on the number of plates being phosphorylated in one batch). Shake between each addition. • 9. After 5 minutes, to stop reaction, add 16.5 ul of 200 mM EDTA pH 8.0 for 20 mM final in well, shaking continuously between each addition. This is done using the same timing method as above. After last row has received EDTA, shake plate an additional minute. • 10. Wash 4x with deionized water, twice with TBST. • 11. Add rabbit polyclonal anti-phosphotyrosine serum. Dilute 1:3000 in TBST. Add 100 ul per well. Incubate 30-45 minutes while shaking. • 12. Wash as described above in step 4. • 13. Add BioSource anti-rabbit peroxidase conjugate antibody. Dilute 1:2000 in TBST. Add 100 ul per well. Incubate 30 minutes while shaking. • 14. Wash as described in step 4. • 15. Add 100 ul of ABTS/H2O2 solution to well. Incubate 5 to 10 minutes while shaking. Remove bubbles • 16. […]

MET = MET biochemical kinase assay; design: species or system human; concentration or dose not given beside the values
Excerpt: A met biochemical kinase assay may be performed for met generally as described above for other kinases by substituting that or the other kinases. In particular, ELISA plates are coated with goat anti-rabbit Fc antibodies, which are used to capture commercially available (from Santa Cruz Biotechnology) rabbit polyclonal antibodies to the cytoplasmic domain of human MET. […] The chimeric receptors, or MET, from these lysates are captured on the antibody coated plates. After washing away extraneous proteins, test compounds are added and an in vitro kinase assay is performed by addition of an appropriate kinase buffer (containing ATP, divalent metal ions, etc.). Incorporation of phosphate into the captured receptors is detected with an anti-phosphotyrosine antibody conjugate with horse radish peroxidase using TMB as a substrate for colorimetric detection.

T1 sequence (P00533 25-1210): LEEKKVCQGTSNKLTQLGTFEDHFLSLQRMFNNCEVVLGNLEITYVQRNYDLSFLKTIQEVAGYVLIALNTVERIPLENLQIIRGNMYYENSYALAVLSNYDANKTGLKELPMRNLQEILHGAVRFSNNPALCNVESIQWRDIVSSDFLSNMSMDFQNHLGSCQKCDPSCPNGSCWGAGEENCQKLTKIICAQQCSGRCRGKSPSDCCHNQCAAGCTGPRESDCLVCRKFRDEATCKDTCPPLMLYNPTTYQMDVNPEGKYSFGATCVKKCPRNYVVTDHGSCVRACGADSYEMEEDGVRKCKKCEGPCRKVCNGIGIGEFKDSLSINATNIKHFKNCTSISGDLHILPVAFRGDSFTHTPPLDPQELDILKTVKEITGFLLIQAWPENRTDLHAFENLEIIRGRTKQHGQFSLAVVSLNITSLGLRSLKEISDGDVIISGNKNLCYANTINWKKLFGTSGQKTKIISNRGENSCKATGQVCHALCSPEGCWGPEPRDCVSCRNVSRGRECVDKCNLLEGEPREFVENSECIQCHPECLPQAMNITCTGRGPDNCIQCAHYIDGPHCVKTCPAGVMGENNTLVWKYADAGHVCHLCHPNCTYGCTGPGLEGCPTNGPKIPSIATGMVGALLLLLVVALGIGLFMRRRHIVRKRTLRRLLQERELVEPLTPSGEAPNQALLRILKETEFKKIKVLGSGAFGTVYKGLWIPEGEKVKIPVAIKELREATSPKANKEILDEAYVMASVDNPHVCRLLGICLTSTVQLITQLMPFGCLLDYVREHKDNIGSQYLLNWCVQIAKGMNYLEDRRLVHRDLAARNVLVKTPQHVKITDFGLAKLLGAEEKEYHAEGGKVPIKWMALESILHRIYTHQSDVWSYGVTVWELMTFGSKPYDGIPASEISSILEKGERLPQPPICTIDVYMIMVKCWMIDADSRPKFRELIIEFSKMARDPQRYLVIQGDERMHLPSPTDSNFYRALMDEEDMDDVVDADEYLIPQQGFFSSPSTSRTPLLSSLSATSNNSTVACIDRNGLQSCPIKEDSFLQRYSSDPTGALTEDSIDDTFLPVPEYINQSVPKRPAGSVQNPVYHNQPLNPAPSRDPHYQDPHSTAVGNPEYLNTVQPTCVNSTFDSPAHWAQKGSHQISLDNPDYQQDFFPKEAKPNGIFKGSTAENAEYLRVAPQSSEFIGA

| Compound | Biochem EGFR %Inhibition (EGFR) [%] | Met Kinase % Inhibition (MET) [%] |
| --- | --- | --- |
| O=C1Nc2ccc(S(=O)(=O)N3CCOCC3)cc2C1=Cc1coc2ccc([N+](=O)[O-])cc2c1=O [10731/F07] | 37.7 | 34.7 |
| CC(C)c1ccc2occ(C=C3C(=O)Nc4ccc(S(=O)(=O)N5CCOCC5)cc43)c(=O)c2c1 [10731/F05] | 19.5 | 84.4 |
| COc1c(I)cc(C=C2C(=O)Nc3ccc(Br)c(C)c32)cc1C(C)(C)C [10732/C11] | -5.0 | 31.9 |
| COc1c(Cl)cc(C=C2C(=O)Nc3c(Br)cc(Br)cc32)cc1C(C)(C)C [10732/A09] | 39.7 | 60.3 |
| C=C(C)C1CC=C(C=C2C(=O)Nc3ccc(S(=O)(=O)N4CCOCC4)cc32)CC1 (stereo not shown) [10731/F04] | 5.0 | 17.0 |
| COc1c(Br)cc(C=C2C(=O)Nc3ccc(I)cc32)cc1C(C)(C)C [10732/B07] | 15.8 | 75.1 |
| CNS(=O)(=O)c1ccc2c(c1)C(=Cc1ccc(OC)c(C(C)(C)C)c1)C(=O)N2 [10732/D05] | -36.7 | 30.2 |
| CC(C)c1ccc2occ(C=C3C(=O)Nc4ccc(S(=O)(=O)Nc5ccc(C(F)(F)F)cc5)cc43)c(=O)c2c1 [10731/E05] | 17.7 | 82.2 |
| CN1C(=O)C(=C2C(=O)Nc3ccc(S(=O)(=O)Nc4ccc(C(F)(F)F)cc4)cc32)c2ccccc21 [10731/E10] | 25.1 | 35.5 |
| O=C1Nc2ccc(S(=O)(=O)N3CCOCC3)cc2C1=Cc1c[nH]c(=O)[nH]c1=O [10731/F08] | 7.1 | 23.5 |
| CN1C(=O)C(=C2C(=O)Nc3ccc(S(=O)(=O)N4CCOCC4)cc32)c2ccccc21 [10731/F10] | 7.9 | 48.1 |
| CCOC(=O)c1cc(C=C2C(=O)Nc3ccc(S(=O)(=O)NC)cc32)oc1C [10718/D06] | 20.0 | 11.1 |
| CCn1c2ccccc2c2cc(C=C3C(=O)Nc4ccc(S(=O)(=O)N5CCOCC5)cc43)ccc21 [10731/F02] | 17.7 | 47.5 |
| CC(C)(C)c1cc(C=C2C(=O)Nc3c(Br)cc(Br)cc32)cc(Br)c1OCc1ccccc1 [10732/A08] | 12.1 | 32.7 |
| COc1ccc2[nH]cc(C=C3C(=O)Nc4ccc(CCCl)cc43)c2c1 [10731/G09] | 8.9 | 4.4 |
| CC(C)(C)c1cc(C=C2C(=O)Nc3c(Br)cc(Br)cc32)cc(Cl)c1OCc1ccccc1 [10732/A10] | 6.1 | 20.3 |
| COc1c(Br)cc(C=C2C(=O)Nc3c(Br)cc(Br)cc32)cc1C(C)(C)C [10732/A07] | -0.3 | 26.1 |
| CNS(=O)(=O)c1ccc2c(c1)C(=C1C(=O)N(C)c3ccccc31)C(=O)N2 [10731/D10] | 15.8 | 21.1 |
| Cc1c(Br)ccc2c1C(=Cc1cc(C(C)C)c(Oc3ccccc3)c(C(C)C)c1)C(=O)N2 [10732/C04] | -14.7 | 30.6 |

| Compound | Biochem EGFR %Inhibition (EGFR) [%] | Met Kinase % Inhibition (MET) [%] |
| --- | --- | --- |
| CC(C)c1ccc2occ(C=C3C(=O)Nc4ccc(CCCl)cc43)c(=O)c2c1 [10731/G05] | 18.5 | 72.4 |
| CNS(=O)(=O)c1ccc2c(c1)C(=Cc1ccc(OCc3ccccc3)c(C(C)(C)C)c1)C(=O)N2 [10732/D06] | 3.6 | 24.3 |
| COc1ccc(C=C2C(=O)Nc3ccc(Br)c(C)c32)cc1C(C)(C)C [10732/C05] | -22.8 | 18.5 |
| C=C(C)C1CC=C(C=C2C(=O)Nc3ccc(CCCl)cc32)CC1 (stereo not shown) [10731/G04] | 7.1 | 23.3 |
| CNS(=O)(=O)c1ccc2c(c1)C(=Cc1cc(C(C)C)c(OC)c(C(C)C)c1)C(=O)N2 [10732/D03] | -18.7 | 24.9 |
| CCn1c2ccccc2c2cc(C=C3C(=O)Nc4ccc(S(=O)(=O)Nc5ccc(C(F)(F)F)cc5)cc43)ccc21 [10731/E02] | 7.9 | 49.1 |
| CNS(=O)(=O)c1ccc2c(c1)C(=CC(c1cccs1)C(F)(F)F)C(=O)N2 (stereo not shown) [10732/D02] | 8.7 | 50.2 |
| CNS(=O)(=O)c1ccc2c(c1)C(=Cc1coc3ccc(C)cc3c1=O)C(=O)N2 [10731/D06] | 23.2 | 59.7 |
| O=C1Nc2ccc(S(=O)(=O)Nc3ccc(C(F)(F)F)cc3)cc2C1=Cc1coc2ccc([N+](=O)[O-])cc2c1=O [10731/E07] | 38.4 | 45.9 |
| COc1c(Cl)cc(C=C2C(=O)Nc3ccc(I)cc32)cc1C(C)(C)C [10732/B09] | 2.0 | 69.2 |
| Cc1c(Br)ccc2c1C(=Cc1cc(Br)c(OCc3ccccc3)c(C(C)(C)C)c1)C(=O)N2 [10732/C08] | 1.6 | 54.5 |
| COc1ccc(C=C2C(=O)Nc3c(Br)cc(Br)cc32)cc1C(C)(C)C [10732/A05] | 4.6 | 20.5 |
| CN1C(=O)C(=C2C(=O)Nc3ccc(CCCl)cc32)c2ccccc21 [10731/G10] | 5.5 | 10.3 |
| Cc1c(Br)ccc2c1C(=Cc1cc(Cl)c(OCc3ccccc3)c(C(C)(C)C)c1)C(=O)N2 [10732/C10] | 1.2 | 43.0 |
| Cc1ccc2occ(C=C3C(=O)Nc4ccc(CCCl)cc43)c(=O)c2c1 [10731/G06] | 2.3 | 33.3 |
| CCn1c2ccccc2c2cc(C=C3C(=O)Nc4ccc(CCCl)cc43)ccc21 [10731/G02] | 4.7 | 15.2 |
| CC(C)(C)c1cc(C=C2C(=O)Nc3ccc(I)cc32)cc(Cl)c1OCc1ccccc1 [10732/B10] | 0.6 | 51.5 |
| COc1c(I)cc(C=C2C(=O)Nc3c(Br)cc(Br)cc32)cc1C(C)(C)C [10732/A11] | 1.8 | 65.3 |
| O=C1Nc2ccc(I)cc2C1=CC(c1cccs1)C(F)(F)F (stereo not shown) [10732/B02] | -26.0 | 78.0 |
